# In ChEMBL document CHEMBL3044694, “Induction of disease resistance by acibenzolar-S-methyl and o-hydroxyethylorutin against Botrytis cinerea in tomato plants” (Crop Prot, 2006):
# Activity calls are given as the source filed them. The rule behind the calls is not given here.
# Legend:
# Solanum lycopersicum [1] = experiment: (§1) Induction of systemic acquired resistance activity in Botrytis cinerea infected Solanum lycopersicum (tomato) leaves assessed as increase in guaiacol peroxidase activity at 0.3 mM applied as spray 24 hr prior to inoculation measured after 6 to 48 hr by colorimetric assay relative to untreated infected control; type: functional, organism-based
# Solanum lycopersicum [2] = experiment: as §1, with “untreated” for “untreated infected”; type: functional, organism-based
# Solanum lycopersicum [3] = experiment: Induction of systemic acquired resistance activity in Solanum lycopersicum (tomato) leaves assessed as decrease in hydroxyl radical generation at 0.3 mM applied as spray 24 hr prior to inoculation measured after 2 to 48 hr by TBARS assay relative to untreated control; type: functional, organism-based
# Solanum lycopersicum [4] = experiment: Induction of systemic acquired resistance activity in Botrytis cinerea infected Solanum lycopersicum (tomato) leaves assessed as increase in H2O2 level at 0.3 mM applied as spray 24 hr prior to inoculation measured after 2 to 6 hr relative to untreated infected control; type: functional, organism-based
# Solanum lycopersicum [5] = experiment: Induction of systemic acquired resistance activity in Botrytis cinerea infected Solanum lycopersicum (tomato) leaves assessed as induction of superoxide anion radical generation at 0.3 mM applied as spray 24 hr prior to inoculation measured after 2 to 6 hr by nitro blue tetrazolium reduction assay relative to control; type: functional, organism-based
# Solanum lycopersicum [6] = experiment: Induction of systemic acquired resistance activity in Botrytis cinerea infected Solanum lycopersicum (tomato) leaves assessed as increase in H2O2 level at 0.3 mM applied as spray 24 hr prior to inoculation measured after 2 to 6 hr relative to untreated control; type: functional, organism-based
# Solanum lycopersicum [7] = experiment: Phytotoxicity in Solanum lycopersicum (tomato) at 0.3 mM applied as spray; type: organism-based; details: in vivo, other, 300 µM
# Solanum lycopersicum [8] = experiment: Induction of systemic acquired resistance activity in Botrytis cinerea infected Solanum lycopersicum (tomato) leaves assessed as visible lesions on leaf surface at 0.3 mM applied as spray 24 hr prior to inoculation measured after 14 days (reference value: 66%); type: functional
smiles,measurement,setting,value
CSC(=O)c1cccc2nnsc12 [ACIBENZOLAR-S-METHYL],Activity,Solanum lycopersicum [1],Active
same,Activity,Solanum lycopersicum [2],Active
same,Activity,Solanum lycopersicum [3],Active
same,Activity,Solanum lycopersicum [4],Active
same,Activity,Solanum lycopersicum [5],Active
same,Activity,Solanum lycopersicum [6],Active
same,Activity,Solanum lycopersicum [7],Non-toxic
same,Activity,Solanum lycopersicum [8],27%
